“Also recorded” adds a separate entry of the source.
Legend:
WT mice = test: L-BAIBA or D-BAIBA in the drinking water of WT mice: urine Pi excretion, plasma Pi, plasma intact FGF23; assay type: in vivo, mouse
Procedure: FIG. 5A: 5 mo. old males treated with CO, L-BAIBA, or D-BAIBA in the drinking water for 5 days. FIGS. 5B-5D: same 5 mo. old males from FIG. 5A treated for 30 days, following sacrifice in addition to urine Pi/urine creatinine, plasma Pi and plasma intact FGF23 were determined. Data are mean±SEM, ****p<0.00002, ***p=0.0002, **p=0.002, *p=0.03 vs. CO.
Mouse lines are back-crossed to C57BL6 mice (Charles river laboratories strain ID 027) to reduce variation caused by genetic background and fed a standard chow containing 0.3% bio-available Pi (Teklad 2018S) or for selective experiments a high Pi (HPD diet, 1.2% bio-available Pi, Teklad TD85349). L-BAIBA can be supplied in the drinking water (see Chemical Reagents below). PCR-based genotyping can be done on each experimental animal using gDNA prepared by alkaline lysis from a tail- or ear-snip to verify presence of the Pit1 null, Pit2 null, HA-hPIT1^tg/+ and HSA-Cre^tg/+ alleles.
All blood and urine studies for calcium, creatinine, phosphorus, iPTH, and c/iFGF23 can be performed using commercially available Stanbio kits, Immutopics and R&D ELISAs, or LC-MS/MS-based methods. […] Results can be analyzed using a Perkin Elmer 1420 Multilabel Counter Victor 3 currently located at the Anlyan Center, S-120 or using an Applied Biosystems API6500 QTrap interfaced to a Shimadzu HPLC (LC-20AD, SIL-20AC, CTO-20A) currently located in Anlyan Center, S-260. […]

FGF23 synthesis in bone = test: Stimulation of FGF23 synthesis in bone; assay type: in vivo; settings: resulting in unsuppressed FGF23 levels
MRGPRD = molecular target: T1, MRGPRD (Mus musculus, UniProt Q91ZB8); settings: young mice, cited from earlier work
T1 construct: young osteocytes which express high levels of MRGPRD; endogenous in cells; host or cells: osteocytes of young mice (in vivo, hind-limb suspension)
T1 sequence (Q91ZB8 1-321): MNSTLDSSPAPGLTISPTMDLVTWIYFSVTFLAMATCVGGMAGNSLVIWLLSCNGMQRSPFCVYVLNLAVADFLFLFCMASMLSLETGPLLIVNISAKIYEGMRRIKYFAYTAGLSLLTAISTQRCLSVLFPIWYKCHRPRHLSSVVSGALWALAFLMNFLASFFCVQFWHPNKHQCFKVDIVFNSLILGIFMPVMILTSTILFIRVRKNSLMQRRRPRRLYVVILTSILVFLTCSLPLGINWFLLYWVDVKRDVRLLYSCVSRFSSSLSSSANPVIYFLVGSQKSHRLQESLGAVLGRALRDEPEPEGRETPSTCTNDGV

FGF23 = molecular target: T2, FGF23 (Homo sapiens, UniProt Q9GZV9); settings: individuals with XLH treated with burosumab; cited from earlier work
T2 construct: individuals treated with burosumab (Crysvita), an FGF23-neutralizing antibody therapy for XLH; endogenous in cells; host or cells: patients with XLH (in vivo, circulating hormone)
T2 sequence (Q9GZV9 25-251): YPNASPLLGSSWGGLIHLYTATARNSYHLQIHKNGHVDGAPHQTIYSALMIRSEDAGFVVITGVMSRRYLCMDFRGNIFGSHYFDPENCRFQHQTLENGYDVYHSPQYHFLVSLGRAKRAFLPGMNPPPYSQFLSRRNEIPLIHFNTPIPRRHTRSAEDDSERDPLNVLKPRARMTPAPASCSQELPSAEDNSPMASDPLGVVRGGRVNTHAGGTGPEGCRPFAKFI

Molecule | urine Pi excretion (urine Pi/urine creatinine) (WT mice; 5 mo. old male WT mice, in the drinking water for 5 or 30 days, vs. CO) | FGF23 levels (plasma intact FGF23) (WT mice; 5 month old WT mice treated with L-BAIBA) | FGF23 synthesis in bone (FGF23 synthesis in bone) | osteocyte survival (MRGPRD; activation of MRGPRD, maintaining mitochondrial integrity) | bone loss caused by hind-limb suspension (MRGPRD) | fatigue and endurance reported by treated individuals (FGF23)
C[C@@H](CN)C(=O)O [L-BAIBA, (S)-3-amino-2-methylpropanoic acid] | increased renal Pi-excretion; also recorded: increases urine Pi excretion; also recorded: caused a renal Pi leak | inappropriately normal | able to stimulate FGF23 synthesis in bone | promotes osteocyte survival | prevents bone loss | 
burosumab: an FGF23-neutralizing antibody therapy for XLH |  |  |  |  |  | improved fatigue and endurance

Reference: patent US20220347141A1, “METHODS OF TREATING PHOSPHATE CONCENTRATION DISORDERS WITH L-BAIBA” (YALE UNIVERSITY, priority 2019, published 2022)
